Source: patent publication US20230285524A1, “USE OF ELAFIN FOR DISORDERS ASSOCIATED WITH ELASTASE INDEPENDENT INCREASE IN TROPONIN” (tiakis Biotech AG, priority 2014, published 2023)

Experiments:
C-reactive protein (CRP) = assay: Serum C-reactive protein after on-pump coronary artery bypass grafting surgery, Elafin versus placebo; type: in vivo, human; conditions: 200 mg i.v. infusion, time point 6 h
Procedure: (§1) 44 Patients undergoing on-pump coronary artery bypass grafting surgery received a 200 mg dose of Elafin in 250 mL of normal saline by intravenous infusion that was started at first skin incision and completed at least 20 min before cardiopulmonary bypass commenced. A second group of 42 patients undergoing the same surgical procedure received 250 ml normal saline (placebo) per infusion instead.
Blood was drawn from patients and from the blood samples serum was prepared. Serum levels of the inflammatory marker C-reactive protein (CRP) at time point 6 h were measured (FIG. 4).

U937 = U937 cells, Butler et al., 2006, cited from earlier work
IL-6 = assay: Serum interleukin 6 after on-pump coronary artery bypass grafting surgery, Elafin versus placebo; type: in vivo, human; conditions: 200 mg i.v. infusion
Procedure: as §1
Blood was drawn from patients and from the blood samples serum was prepared. Serum levels of interleukin 6 were determined by the use of a Human Interleukin 6 Immunoassay (R&D Systems Europe, Abingdon, UK) according to the instructions of the manufacturer. This assay employs the quantitative sandwich enzyme immunoassay technique. A monoclonal antibody specific for IL-6 has been pre-coated onto a microplate. Interleukin 6 standards and samples were pipetted into wells and any IL-6 present was bound by an immobilized antibody. After washing away any unbound substances, an enzyme-linked polyclonal antibody specific for IL-6 was added to the wells. Following a wash to remove any unbound antibody-enzyme reagent, a substrate solution was added to the wells. After an incubation period, an amplifier solution was added to the wells and color developed in proportion to the amount of IL-6 bound in the initial step. The color development was stopped and the intensity of the color is measured.

20 S proteasome = conditions: Butler et al., 2006; cited from earlier work
[1] = test system: troponin I release from cardiomyocytes; assay: Plasma cTroponin I after coronary artery bypass grafting surgery, randomized double-blinded trial, Elafin versus placebo; type: in vivo, human; conditions: 200 mg i.v. infusion at start of surgery
Procedure: Patients undergoing coronary artery bypass grafting surgery were treated with either intravenous infusion of a 200 mg dose of Elafin in 250 mL of normal saline (Elafin group, n=44) or 250 mL of normal saline (placebo group, n=42) in a randomized, double-blinded clinical trial. The intravenous infusion was started at first skin incision and completed at least 20 min before cardiopulmonary bypass commenced.
Blood samples were taken at baseline (time 0, skin incision) and at 2, 6, 24 and 48 h post-operatively. Plasma cTroponin I concentrations were quantified with the Abbott Architect highly-sensitive assay (Abbott Laboratories, ILL) according to the manufacturer's instructions. This assay has a sensitivity of 0.01 ng/mL or less, with a 10% coefficient of variation of 0.032 ng/mL and a 99th percentile (male and female) of 0.012 ng/mL. cTroponin I is a regulatory protein of cardiomyocyte contraction and its presence in blood plasma is a specific indication of cardiomyocyte injury.

[2] = rats; cited from earlier work

## Elafin: recombinant human protein of 57 amino acids (SEQ ID NO:1), reversible tight binding inhibitor of elastase and proteinase 3 (AQEPVKGPVSTKPGSCPIILIRCAMLNPPNRCLKDTDCPGIKKCCEGSCGMACFVPQ; listed as Homo sapiens)
C-reactive protein (CRP)
  effect on serum level of CRP (postoperative rise): no effect
C-reactive protein (CRP); listed as elafin
  effect on serum level of CRP (postoperative rise): not affected
U937
  LPS-induced activation of the transcription factors AP-1 and NF-κB: inhibited
U937; LPS
  production of macrophage chemokine MCP-1 (CCL2): inhibition
IL-6
  effect on serum level of IL-6 (postoperative rise): no effect
IL-6; listed as elafin
  effect on serum level of IL-6 (postoperative rise): not affected
20 S proteasome
  inhibition of peptidase activities associated with the 20 S proteasome: no inhibition
[1]; 6 h
  reduction of troponin I release 6 hours after commencement of surgery: significant reduction
[1]; AUC 0-48 h
  overall reduction of the Troponin I release (area under the curve) over 48 hours, in words: overall reduction
  overall reduction of the troponin I release over 48 hours (area under the curve): 20-40%
[2]
  side effects after intravenous administration: without any side effects
